This note sets out measurements from PMC12276035, “Novel Para‐Phenylenediamine‐Based Derivatives as Receptor Tyrosine Kinase‐like Orphan Receptor 1 (ROR1) Inhibitors: An In Vitro Preliminary Characterization” (Chemmedchem, 2025).

Data set [1] in a line: Plasma protein binding, rapid equilibrium dialysis. To be noted: 37 °C, read-out: drug bound to plasma proteins. In kind it is in vitro ADME. An excerpt: Plasma protein binding plays a crucial role in drug distribution and biological activity. After absorption into systemic circulation, drug molecules may bind to plasma proteins, and the bound drug cannot cross biological membranes, rendering it unavailable to exert a pharmacological effect. Only the free drug, unbound to plasma proteins, is pharmacologically active.
A Rapid Equilibrium Dialysis Plate (Pierce™ RED, Thermo Scientific) was used to determine the percentage of compound binding to plasma proteins. Potassium phosphate buffer was added to each white well, and plasma/compound (1 μM) mixture was added to the red wells. The plate was sealed and incubated at 37 °C on an orbital shaker at 300 rpm for 4 h. Afterward, 50 μL of post‐dialysis samples from the buffer and plasma chambers were transferred into separate microcentrifuge tubes. An equal volume of plasma was added to the buffer sample, while the plasma sample received an equivalent volume of buffer. Precooled IS was added to the assay plate to quench the reaction. Compounds were quantified by LC‐MS/MS. The percentage of free and bound compound was calculated using the following equations: % free = (concentration in buffer chamber/concentration in plasma chamber) × 100, and % bound = 100 − % free.^[ [48] ^] All experiments were performed in duplicate. Propranolol was used as positive control.
For orientation: Equilibrium dialysis compares concentrations on both sides of a semipermeable membrane.

Data set [2] relates to ROR1 pathways in JeKo‐1 cells. Nature of the data set: Western blotting of ROR1 pathway. In kind it is cell-based, human. Conditions: western blot. The text has this:
This time‐dependent reduction in P‐ROR1 is particularly significant, as it represents the upstream event that drives the observed proapoptotic downstream effects. […] Indeed, activation of ROR1 initiates the nonclassical Wnt (PI3K/AKT/mTOR) pathway and upregulates the phosphorylation level of AKT, which contributes to the survival and proliferation of cancer cells.^[ [25] ^]
Figure 6 Molecular effects of 17 on ROR1 pathways in JeKo‐1 cells. For each western blotting analysis, three independent experiments were performed, and the SD is expressed by error bars. The relative fold change versus untreated cells, set as 1, is shown in the graph. *, **, and *** denote respectively p < 0.05, p < 0.01, and p < 0.001 versus Ctrl.
JeKo‐1 cells (2.5 × 10^6 cells/well) were seeded in a T‐75 flask, treated with compound 17 (10 μM) for different times (4, 8, and 24 h). After treatments, cells were washed twice with PBS and detached with a scraper, centrifuged at 655 g × 10 min at 4 °C. Full proteins were extracted by lysis buffer (20 mM Tris‐HCl pH 7.5, 150 mM NaCl, 1 mM Na2EDTA, 1 mM EGTA, 2% NP‐40, 1% sodium deoxycholate, 1× protease and phosphatase inhibitor cocktail) for 30 min. Then, cell lysates were centrifuged at 4850 g for 20 min at 4 °C. 60 μg of total proteins were run on 8% SDS‐PAGE and transferred to nitrocellulose membranes using a minigel apparatus (Bio‐Rad Laboratories, Hercules, CA, USA). Blots were blocked in phosphate‐buffered saline, containing Tween‐20 0.1% and 5% BSA for 1 h at room temperature and incubated overnight with specific primary antibodies at 4 °C with slight agitation. α‐Tubulin was used as the loading control. […] Antigen‐antibody complexes were detected by enhanced chemiluminescence (ECL kit, Amersham, Germany). […]

The next data set addresses T1, ROR1 (Homo sapiens, UniProt Q01973).
T1 construct: endogenous in cells; host or cells: JeKo-1
Nature of the data set: Cellular Thermal Shift Assay (CETSA). In kind it is cell-based. To be noted: JeKo‐1, 40 μM, 2 h, 45–58 °C. How it is done: To further ascertain the binding between 17 and ROR1, we performed CETSA, a cell‐based test allowing us to carry out both qualitative and quantitative analyses of the direct interaction of a drug candidate to a target protein inside a cell.^[ [34] ^] CETSA assay was performed on JeKo‐1 cell line incubated with 17 for 2 h. After the treatment, ROR1 levels were evaluated by western blotting analysis. […] These findings provide strong evidence that the inhibitor effectively engages with ROR1 in cells, further supporting its mechanism of action (Figure 5 ). Ponatinib was used as a positive control (Figure S40, Supporting Information).
Figure 5 CETSA identifies ROR1 protein in the binding with 17 in JeKo‐1 cells. A) CETSA western blots and B) corresponding quantitative analysis of band intensity. […] Densitometry‐based quantification of western blotting signals was calculated by first normalizing to α‐tubulin levels in individual samples. […]
The CETSA is particularly suitable for identifying the interaction between ligands and their protein targets. […] The change in the thermal stability of the target protein is measured by the amount of residual soluble protein at different temperatures, comparing treated samples with control samples.^[ [32] ^] […] The amount of the soluble target protein was assessed by western blotting analysis.

T1 sequence (Q01973 30-937): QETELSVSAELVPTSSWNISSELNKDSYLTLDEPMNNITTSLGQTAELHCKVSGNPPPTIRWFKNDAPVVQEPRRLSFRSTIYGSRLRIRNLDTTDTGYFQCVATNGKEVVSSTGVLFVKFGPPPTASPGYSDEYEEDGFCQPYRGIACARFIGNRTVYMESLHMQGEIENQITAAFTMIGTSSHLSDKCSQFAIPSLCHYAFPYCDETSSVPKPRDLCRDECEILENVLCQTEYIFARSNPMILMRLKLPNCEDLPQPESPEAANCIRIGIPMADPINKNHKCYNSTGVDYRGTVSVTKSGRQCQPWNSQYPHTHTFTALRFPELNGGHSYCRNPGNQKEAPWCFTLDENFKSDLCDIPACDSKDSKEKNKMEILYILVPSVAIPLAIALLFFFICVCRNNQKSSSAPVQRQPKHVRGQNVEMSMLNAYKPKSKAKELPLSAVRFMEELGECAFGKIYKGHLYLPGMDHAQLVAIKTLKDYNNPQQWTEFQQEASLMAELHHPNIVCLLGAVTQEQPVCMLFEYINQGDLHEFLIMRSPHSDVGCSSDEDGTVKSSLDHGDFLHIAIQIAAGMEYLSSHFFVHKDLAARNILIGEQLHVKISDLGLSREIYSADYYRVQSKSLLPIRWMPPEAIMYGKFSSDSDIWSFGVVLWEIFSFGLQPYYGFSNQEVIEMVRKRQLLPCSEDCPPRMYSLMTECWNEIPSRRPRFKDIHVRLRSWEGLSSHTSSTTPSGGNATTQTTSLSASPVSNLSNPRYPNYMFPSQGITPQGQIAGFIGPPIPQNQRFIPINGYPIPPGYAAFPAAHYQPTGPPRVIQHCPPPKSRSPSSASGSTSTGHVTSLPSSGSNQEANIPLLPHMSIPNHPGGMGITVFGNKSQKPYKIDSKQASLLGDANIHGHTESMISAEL

With `O=C(NCc1ccc(-c2ccccc2)cc1)Nc1ccc(NCC2CCNCC2)cc1C(F)(F)F` [Compound 17], the fraction unbound at 4 h, 1 μM in data set [1] turned out to be 0.01. In data set [2] (JeKo‐1, 10 μM, 4, 8 and 24 h), the AKT phosphorylation result is on record as “significant decrease” and the ROR1 phosphorylation result was “marked reduction”. The “total ROR1 protein levels” value in data set [2] (JeKo‐1, 10 μM, 24 h) is given as “increase”. The ROR1 thermal stabilization entry at ROR1 is “strong stabilization”.
